Source: patent US11731974B2, “N-acyl-(3-substituted)-(8-substituted)-5,6-dihydro-[1,2,4]triazolo[4,3-a]pyrazines as selective NK-3 receptor antagonists” (Ogeda SA, priority 2013, dated 2023)

Columns and labels:
[1] = test system: circulating LH levels; assay: Castrated male rat model, circulating levels of luteinizing hormone (LH); assay type: in vivo; settings: single oral dose less than or equal to 30 mg/kg, p<0.05
Method: In Vivo Assay to Assess Compound Activity in Rat (Oral Dosing)
Castrated male rat model to assess the effect of compound of invention on circulating levels of luteinizing hormone (LH)
The effect of compounds of the invention to inhibit luteinizing hormone (LH) secretion is determined by the following biological studies.
In humans and rodents, castration is well-precedented to permit heightened, persistent GnRH signaling and consequent elevation of circulating LH. Thus, a castrated rat model is used to provide a broad index for measurement of LH inhibition as a marker of test compound inhibition of the GnRH signaling pathway.
Castrated adult male Sprague-Dawley (SD) rats (150-175 g) were purchased from Janvier (St Berthevin, France). All animals were housed 2 per cage in a temperature-controlled room (22±2° C.) and 50±5% relative humidity with a 12 hour/12 hour light/dark cycles (lights off at 6 h00 pm). The animals were allowed 3 weeks of postoperative recovery prior to study. Animals were handled on a daily basis. Standard diet and tap water were provided ad libitum. Animal cage litters were changed once a week. On the study day, animals were acclimated to the procedure room for a period of one hour prior to the initiation of the experiment.
Compounds of the invention were formulated in 0.5% methyl cellulose.
After basal sampling (TO) a single dose of compounds of the invention or vehicle was administrated orally to rats. Blood samples were then collected at several time points post dosing (45, 90, 150, 300 and 420 minutes). Blood samples were obtained via tail vein bleed, drawn into EDTA-containing tubes and centrifuged immediately. Plasma samples were collected and stored in a −80° C. freezer until assayed. Serum LH levels were determined using radioimmunoassay kit from RIAZEN—Rat LH, Zentech (Liege, Belgium). Baseline was defined as the initial basal blood sample.

[2] = test system: plasma estradiol; assay: Estradiol circulating level in female rats; assay type: in vivo, rat; settings: 10 mg/kg b.i.d. oral, two consecutive estrous cycles, FIG. 3
Method: Effect of compounds of the invention on Estradiol circulating level in female rats. The aim of this study was to evaluate the effect of compounds of the invention on plasma estradiol levels following oral administration at 10 mg/kg (b.i.d.) for a period of 10 days in female rats.
(§1) Briefly the experimental methods used for this study were as follows:
Two groups of adult, female rats (Sprague-Dawley, ˜320 g) were treated in-phase with their individual estrous cycles. […] Compounds of the invention were prepared in a dose formulation of pyrogen-free water with 0.5% methylcellulose. Estradiol levels were determined for all groups by ELISA performed on plasma samples derived from blood collections taken at 30 minutes before the daily, 9 h30 test article administration on all days presented in FIG. 3.

[3] = test system: serum TT, LH, FSH in women with PCOS; assay: Phase 2a clinical trial, PolyCystic Ovary Syndrome (PCOS); assay type: in vivo, human; settings: 180 mg QD
Method: The Phase 2a trial was double blind and randomized.
Blood draws for LH, FSH and TT were taken every visit between 2 and 8 hours after drug intake (baseline and week 3-6-12). […] These blood draws were the basis for assessing the primary (TT) and secondary (LH, FSH, LH:FSH ratio) endpoints. The primary endpoint of Total Testosterone was measured according to GLP using an LC-MS/MS method.
PCOS is typically characterized by excessive ovarian androgen production, failure of ovulation, and slightly enlarged ovaries with numerous peripheral small follicles that appear as cysts. The disorder is commonly accompanied by infertility. Typically, the clinical features of PCOS are associated with hypersecretion of LH and androgens (TT) but with normal serum concentrations of FSH hormone.
Statistical analyses performed by 2-way ANOVA comparing placebo to treatment.

[4] = test system: body temperature in ovariectomized ewes; assay: In vivo assay in OVX ewes, thermoregulation; design: species or system ewe; settings: 1 mg/kg intravenous
Text: In Vivo Assay in OVX Ewes-Activity in Thermoregulation Experimental Methods: Evaluation of Thermoregulation in OVX Ewe […] After 4 months recovery, animals were acclimatised to housing in single pens for a period of 7 days with ad libitum access to water and […] lucerne hay. One day prior to experimentation, the animals received a jugular vein cannula ([…], Tuta Laboratories, Lane Cove, Australia). The cannula were kept patent with heparinised saline. […] Animals were fed at 12 h00. Rectal temperatures were monitored with a probe at hourly intervals throughout the experiment, starting at 7 h40 and concluding at 15 h40. […] However, this pyrogenic response to feeding in ovarectomized ewes was not observed in any animals treated with compound no 5. […] Graphical data presented as mean±SEM for vehicle-treated versus compound no 5-treated ewes (N=5/group). Statistical analyses performed by 2-way ANOVA followed by Sidak's Multiple Comparisons Test between treatment groups at the indicated time interval, *p<0.05. Conclusions: Ovariectomy in the ewe causes changes in core body temperature considered analogous to menopausal hot flashes ([…], Bryant, & Turner, 2003) to the extent that a transient, pyrogenic response to feeding is observed (Henry, Dunshea, Gould, & Clarke, 2008).

[5] = test system: plasma testosterone; assay: Plasma testosterone in gonad intact male rats; assay type: in vivo, rat; settings: 3 mg/kg single oral, vs vehicle, FIG. 1
Method: The study was designed to evaluate the effect of compounds of the invention on testosterone circulating levels following oral administration at 3 mg/kg on SD gonad intact male rats.
as §1
Two groups of non-fasted rats (male, Sprague-Dawley, 200 to 225 g; n=4 rats/group) with jugular vein cannulation, were dosed via a single oral administration of compounds of the invention at 3 mg/kg. The control group was dosed with the vehicle. Compounds of the invention were prepared in a dose formulation of pyrogen-free water with 0.5% methylcellulose. Blood samples were collected via the catheter implanted in the jugular vein at pre-determined intervals using EDTA-3K as anti-coagulant. Samples were chilled and rapidly processed by centrifugation to obtain corresponding plasma samples. Testosterone hormone levels were determined by RIA performed on plasma samples collected for all the groups at 5 minutes before administration (basal time), and at 45, 90, 150, 300, 480 minutes and 24 hours after dosing.

SMILES | circulating LH levels [1] | also measured
Cc1nsc(-c2nnc3n2CCN(C(=O)c2ccccc2)[C@@H]3C)n1 [Compound 20, (R)-(8-methyl-3-(3-methyl-1,2,4-thiadiazol-5-yl)-5,6-dihydro-[1,2,4]triazolo[4,3-a]pyrazin-7(8H)-yl)(phenyl)methanone] | significantly suppressed | –
Cc1nsc(-c2nnc3n2CCN(C(=O)c2ccc(Cl)c(Cl)c2)[C@@H]3C)n1 [Compound 1, (R)-(3,4-dichlorophenyl)(8-methyl-3-(3-methyl-1,2,4-thiadiazol-5-yl)-5,6-dihydro-[1,2,4]triazolo[4,3-a]pyrazin-7(8H)-yl)methanone] | significantly suppressed | –
CCc1noc(-c2nnc3n2CCN(C(=O)c2ccc(-c4cccs4)cc2)[C@@H]3C)n1 [Compound 30, (R)-(3-(3-ethyl-1,2,4-oxadiazol-5-yl)-8-methyl-5,6-dihydro-[1,2,4]triazolo[4,3-a]pyrazin-7(8H)-yl)(4-(thiophen-2-yl)phenyl)methanone] | significantly suppressed | –
Cc1nsc(-c2nnc3n2CCN(C(=O)c2ccc(F)c(F)c2)[C@@H]3C)n1 [Compound 9, (R)-(3,4-difluorophenyl)(8-methyl-3-(3-methyl-1,2,4-thiadiazol-5-yl)-5,6-dihydro-[1,2,4]triazolo[4,3-a]pyrazin-7(8H)-yl)methanone] | significantly suppressed | –
Cc1nsc(-c2nnc3n2CCN(C(=O)c2ccc(F)cc2)[C@@H]3C)n1 [Compound 5, (R)-(4-fluorophenyl)(8-methyl-3-(3-methyl-1,2,4-thiadiazol-5-yl)-5,6-dihydro-[1,2,4]triazolo[4,3-a]pyrazin-7(8H)-yl)methanone] | significantly suppressed | estradiol levels [2]: significantly decreased; FSH secretion [3]: preserved; LH [3]: significant decrease; LH:FSH in comparison of placebo [3]: significantly reduced; TT in comparison of placebo [3]: significantly reduced; pyrogenic response to feeding [4]: not observed; plasma testosterone level [5]: significantly suppressed
CCc1nsc(-c2nnc3n2CCN(C(=O)c2ccc(F)cc2)[C@@H]3C)n1 [Compound 2, (R)-(3-(3-ethyl-1,2,4-thiadiazol-5-yl)-8-methyl-5,6-dihydro-[1,2,4]triazolo[4,3-a]pyrazin-7(8H)-yl)(4-fluorophenyl)methanone] | significantly suppressed | –
Cc1nsc(-c2nnc3n2CCN(C(=O)c2ccc(Cl)c(F)c2)[C@@H]3C)n1 [Compound 4, (R)-(4-chloro-3-fluorophenyl)(8-methyl-3-(3-methyl-1,2,4-thiadiazol-5-yl)-5,6-dihydro-[1,2,4]triazolo[4,3-a]pyrazin-7(8H)-yl)methanone] | significantly suppressed | –
Cc1nsc(-c2nnc3n2CCN(C(=O)c2ccc(F)c(F)c2F)[C@@H]3C)n1 [Compound 8, (R)-(8-methyl-3-(3-methyl-1,2,4-thiadiazol-5-yl)-5,6-dihydro-[1,2,4]triazolo[4,3-a]pyrazin-7(8H)-yl)(2,3,4-trifluorophenyl)methanone] | significantly suppressed | –
CCc1noc(-c2nnc3n2CCN(C(=O)c2ccc(F)cc2)[C@@H]3C)n1 [Compound 13, (R)-(3-(3-ethyl-1,2,4-oxadiazol-5-yl)-8-methyl-5,6-dihydro-[1,2,4]triazolo[4,3-a]pyrazin-7(8H)-yl)(4-fluorophenyl)methanone] | significantly suppressed | –
